Reference: patent US20260085073A1, “PYRAZOLYLCARBOXAMIDE COMPOUNDS AND THEIR USE IN THERAPY” (Hotspot Therapeutics, Inc., priority 2022, published 2026)

Each compound was assayed against T1, MALT1 (Homo sapiens, UniProt Q9UDY8) (assay: MALT1 inhibition assay (MALT-1 Fluorogenic Peptide Cleavage Assay, Ac-LRSR-AMC substrate)). Details: Avi-tagged FL MALT-1, 30 min pre-incubation, 90 min reaction at room temperature, fluorescence intensity.
T1 construct: Avi-tagged FL MALT-1 (Pharmaron, stored at −70° C.); Avi-tag
T1 sequence (Q9UDY8 1-824): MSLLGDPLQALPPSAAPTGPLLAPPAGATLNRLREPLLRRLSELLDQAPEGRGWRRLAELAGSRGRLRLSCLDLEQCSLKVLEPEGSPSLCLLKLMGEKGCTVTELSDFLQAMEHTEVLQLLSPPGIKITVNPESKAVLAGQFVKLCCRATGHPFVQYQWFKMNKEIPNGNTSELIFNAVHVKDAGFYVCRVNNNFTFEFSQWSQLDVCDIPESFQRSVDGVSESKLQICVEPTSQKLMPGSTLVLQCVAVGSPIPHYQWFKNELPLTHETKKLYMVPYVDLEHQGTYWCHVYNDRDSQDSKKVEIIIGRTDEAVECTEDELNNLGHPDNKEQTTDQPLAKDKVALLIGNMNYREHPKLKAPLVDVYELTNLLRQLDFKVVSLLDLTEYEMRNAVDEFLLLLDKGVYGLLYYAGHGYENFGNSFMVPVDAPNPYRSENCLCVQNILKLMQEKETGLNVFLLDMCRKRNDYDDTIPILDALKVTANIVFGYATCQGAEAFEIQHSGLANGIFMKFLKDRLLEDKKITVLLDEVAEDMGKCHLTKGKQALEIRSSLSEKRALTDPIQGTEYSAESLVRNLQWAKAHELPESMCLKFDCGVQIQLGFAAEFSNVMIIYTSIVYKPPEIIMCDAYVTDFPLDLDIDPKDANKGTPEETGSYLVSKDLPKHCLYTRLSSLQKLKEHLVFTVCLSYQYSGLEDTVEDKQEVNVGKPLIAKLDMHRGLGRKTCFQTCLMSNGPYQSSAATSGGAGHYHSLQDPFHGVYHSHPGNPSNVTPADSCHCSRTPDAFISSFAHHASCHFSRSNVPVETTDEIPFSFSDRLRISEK
Format: biochemical
Summary of the method: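 Full-length Avi-tagged MALT1 pre-incubated 30 min at room temperature with compounds (2% DMSO final) in HEPES pH 6.89, sodium citrate, TCEP, EDTA, CHAPS buffer. Ac-LRSR-AMC added from 50 µM (Km) or […] working stocks; 90 min at room temperature, AMC fluorescence (ex 342/em 441 nm); IC50 from % inhibition curves.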

Q: How did the IC50 turn out when Cn1nc(-c2cccc3ccoc23)c(C(F)(F)F)c1C(=O)Nc1cnc(-n2nccn2)c(C(F)F)c1 [Compound I-128] was run?
A: < 500 nM

Q: With Cn1nc(-c2cccc3ccoc23)c(C(F)(F)F)c1C(=O)Nc1cnc(-n2nccn2)c(Cl)c1 [Compound I-129] as the compound, how does the IC50 read?
A: < 500 nM

Q: How did the IC50 turn out when Cn1nc(OCc2ccccc2)c(C(F)(F)F)c1C(=O)Nc1ccnc(C(F)(F)F)c1 [Compound I-130] was run?
A: 500 to 2500 nM

Q: Cn1nc(-c2cccc3c(=O)[nH]ccc23)c(C(F)(F)F)c1C(=O)Nc1cnc(-n2nccn2)c(C(F)F)c1 [Compound I-131] was tested. Which IC50 did it give?
A: < 500 nM

Q: How did the IC50 turn out when Cn1nc(-c2cccc3c(=O)[nH]ccc23)c(C(F)(F)F)c1C(=O)Nc1cnc(-n2nccn2)c(C(F)(F)F)c1 [Compound I-132] was run?
A: < 500 nM

Q: Which IC50 does the source give for Cn1nc(-c2cccc3c(=O)[nH]ccc23)c(C(F)(F)F)c1C(=O)Nc1cnc(-n2nccn2)c(Cl)c1 [Compound I-133] here?
A: < 500 nM

Q: For Cn1nc(-c2ccccc2)c(C(F)(F)F)c1C(=O)Nc1ccnc(C2CC2)c1 [Compound I-134], which IC50 is on record?
A: 2500 to 10000 nM

Q: For Cc1cc(NC(=O)c2c(C(F)(F)F)c(-c3ccccc3)nn2C)cnc1-n1nccn1 [Compound I-135], which IC50 is on record?
A: 500 to 2500 nM

Q: With Cc1cc(NC(=O)c2c(C(F)(F)F)c(-c3ccccc3)nn2C)cnc1-n1ccnn1 [Compound I-136] as the compound, how does the IC50 read?
A: 2500 to 10000 nM

Q: For Cn1nc(-c2ccccc2)c(C(F)(F)F)c1C(=O)Nc1cc(C2CC2)ccn1 [Compound I-137], which IC50 is on record?
A: > 10000 nM

Q: Cn1nc(-c2ccccc2)c(C(F)(F)F)c1C(=O)Nc1cc(C(F)(F)F)ccn1 [Compound I-138] was tested. Which IC50 did it give?
A: 500 to 2500 nM

Q: For Cn1nc(-c2cccc3cnccc23)c(C(F)(F)F)c1C(=O)Nc1cnc(-n2nccn2)c(Cl)c1 [Compound I-140, N-(5-chloro-6-(2H-1,2,3-triazol-2-yl)pyridin-3-yl)-3-(isoquinolin-5-yl)-1-methyl-4-(trifluoromethyl)-1H-pyrazole-5-carboxamide], which IC50 is on record?
A: < 500 nM

Q: Which IC50 does the source give for COc1ncc(NC(=O)c2c(C(F)(F)F)c(-c3cccc4ncccc34)nn2C)cc1C#N [Compound I-141] here?
A: 2500 to 10000 nM

Q: For Cn1nc(C(=O)Nc2cnc(-n3nccn3)c(Cl)c2)c(C(F)(F)F)c1-c1cccc2c1OCO2 [Compound I-142], which IC50 is on record?
A: < 500 nM

Q: For Cn1nc(Cc2ccccc2)c(C(F)(F)F)c1C(=O)Nc1cnc(-n2nccn2)c(Cl)c1 [Compound I-143], which IC50 is on record?
A: 500 to 2500 nM

Q: How did the IC50 turn out when Cn1nc(-c2cccc3c2OCO3)c(C(F)(F)F)c1C(=O)Nc1cnc(-n2nccn2)c(Cl)c1 [Compound I-144] was run?
A: < 500 nM

Q: How did the IC50 turn out when Cn1nc(-c2cccc3occc23)c(C(F)(F)F)c1C(=O)Nc1cnc(-n2nccn2)c(Cl)c1 [Compound I-145] was run?
A: < 500 nM

Q: Cn1nc(-c2cccc3occc23)c(C(F)(F)F)c1C(=O)Nc1cnc(-n2nccn2)c(C(F)(F)F)c1 [Compound I-146] was tested. Which IC50 did it give?
A: < 500 nM

Q: Which IC50 does the source give for Cn1nc(-c2ccccc2)c(C(F)(F)F)c1C(=O)Nc1ccnc(C(F)(F)F)c1 [Compound I-147, 1-methyl-3-phenyl-4-(trifluoromethyl)-N-(2-(trifluoromethyl)pyridin-4-yl)-1H-pyrazole-5-carboxamide] here?
A: < 500 nM

Q: Cn1nc(C(=O)Nc2cnc(-n3nccn3)c(Cl)c2)c(C(F)(F)F)c1-c1ccccc1 [Compound I-148] was tested. Which IC50 did it give?
A: < 500 nM

Q: Which IC50 does the source give for Cn1nc(C(=O)Nc2ccc(C(=O)N3CC(O)C3)c(Cl)c2)c(C(F)(F)F)c1-c1ccccc1 [Compound I-149] here?
A: > 10000 nM

Q: With Cn1nc(-c2ccccc2)c(C(F)(F)F)c1C(=O)Nc1ccc(C(=O)N2CC(O)C2)c(Cl)c1 [Compound I-150] as the compound, how does the IC50 read?
A: 2500 to 10000 nM

Q: How did the IC50 turn out when Cn1nc(-c2ccccc2)c(C(F)(F)F)c1C(=O)Nc1cnc(-n2nccn2)c(C(F)(F)F)c1 [Compound I-151] was run?
A: < 500 nM

Q: For Cn1nc(-c2ccccc2)c(C(F)(F)F)c1C(=O)Nc1cnc(-n2nccn2)c(Cl)c1 [Compound I-152], which IC50 is on record?
A: < 500 nM

Q: With Cn1nc(-c2ccccc2)c(C(F)(F)F)c1C(=O)Nc1cnc(-n2nccn2)c(C#N)c1 [Compound I-153] as the compound, how does the IC50 read?
A: < 500 nM

Q: How did the IC50 turn out when Cn1nc(-c2cccc3c2OC(F)(F)O3)c(C(F)(F)F)c1C(=O)Nc1cnc(-n2nccn2)c(Cl)c1 [Compound I-154] was run?
A: < 500 nM

Q: With Cn1nc(C(=O)Nc2ccc(C(=O)N3CC(O)C3)c(Cl)c2)cc1-c1ccccc1 [Compound I-155] as the compound, how does the IC50 read?
A: > 10000 nM

Q: With COc1ncc(NC(=O)c2c(C(F)(F)F)c(-c3cccc4ccoc34)nn2C)cc1C#N [Compound I-156] as the compound, how does the IC50 read?
A: < 500 nM

Q: With Cn1nc(-c2cccc3c(=O)[nH]ccc23)c(C(F)(F)F)c1C(=O)Nc1cnc(-n2nccn2)c(C#N)c1 [Compound I-157] as the compound, how does the IC50 read?
A: < 500 nM

Q: How did the IC50 turn out when Cn1nc(-c2cccc3c2OCC3)c(C(F)(F)F)c1C(=O)Nc1ccnc(C(F)(F)F)c1 [Compound I-158, 3-(2,3-dihydrobenzofuran-7-yl)-1-methyl-4-(trifluoromethyl)-N-(2-(trifluoromethyl)pyridin-4-yl)-1H-pyrazole-5-carboxamide] was run?
A: < 500 nM

Q: Cn1nc(-c2cccc3c2OCC3)c(C(F)(F)F)c1C(=O)Nc1cnc(-n2nccn2)c(Cl)c1 [Compound I-159] was tested. Which IC50 did it give?
A: < 500 nM

Q: For Cn1nc(-c2cncc3ccccc23)c(C(F)(F)F)c1C(=O)Nc1ccnc(C(F)(F)F)c1 [Compound I-160], which IC50 is on record?
A: 500 to 2500 nM

Q: Cn1nc(-c2cccc3ncnn23)c(C(F)(F)F)c1C(=O)Nc1ccnc(C(F)(F)F)c1 [Compound I-162, 3-([1,2,4]triazolo[1,5-a]pyridin-5-yl)-1-methyl-4-(trifluoromethyl)-N-(2-(trifluoromethyl)pyridin-4-yl)-1H-pyrazole-5-carboxamide] was tested. Which IC50 did it give?
A: 500 to 2500 nM

Q: For Cn1nc(-c2cccc3nccn23)c(C(F)(F)F)c1C(=O)Nc1cnc(-n2nccn2)c(Cl)c1 [Compound I-163], which IC50 is on record?
A: < 500 nM

Q: How did the IC50 turn out when [2H]C([2H])([2H])n1nc(-c2ccccc2)c(C(F)(F)F)c1C(=O)Nc1cnc(-n2nccn2)c(Cl)c1 [Compound I-165] was run?
A: < 500 nM

Q: With [2H]C([2H])([2H])n1nc(C(=O)Nc2cnc(-n3nccn3)c(Cl)c2)c(C(F)(F)F)c1-c1ccccc1 [Compound I-166] as the compound, how does the IC50 read?
A: < 500 nM

Q: For [2H]C([2H])([2H])n1nc(-c2ccccc2)c(C(F)(F)F)c1C(=O)Nc1cnc(-n2nccn2)c(C#N)c1 [Compound I-167], which IC50 is on record?
A: < 500 nM

Q: Which IC50 does the source give for CCn1nc(C(=O)Nc2cnc(-n3nccn3)c(Cl)c2)c(C(F)(F)F)c1-c1ccccc1 [Compound I-168] here?
A: < 500 nM

Q: With CCn1nc(-c2ccccc2)c(C(F)(F)F)c1C(=O)Nc1cnc(-n2nccn2)c(Cl)c1 [Compound I-170] as the compound, how does the IC50 read?
A: < 500 nM

Q: With CN(C)CCn1nc(-c2ccccc2)c(C(F)(F)F)c1C(=O)Nc1cnc(-n2nccn2)c(Cl)c1 [Compound I-171, N-(5-chloro-6-(2H-1,2,3-triazol-2-yl)pyridin-3-yl)-1-(2-(dimethylamino)ethyl)-3-phenyl-4-(trifluoromethyl)-1H-pyrazole-5-carboxamide] as the compound, how does the IC50 read?
A: 500 to 2500 nM

Q: With COCCn1nc(-c2ccccc2)c(C(F)(F)F)c1C(=O)Nc1cnc(-n2nccn2)c(Cl)c1 [Compound I-172] as the compound, how does the IC50 read?
A: 500 to 2500 nM

Q: For COCCn1nc(C(=O)Nc2cnc(-n3nccn3)c(Cl)c2)c(C(F)(F)F)c1-c1ccccc1 [Compound I-173], which IC50 is on record?
A: > 10000 nM

Q: With COCCn1nc(-c2ccccc2)c(C(F)(F)F)c1C(=O)Nc1cnc(-n2nccn2)c(C#N)c1 [Compound I-174] as the compound, how does the IC50 read?
A: 500 to 2500 nM

Q: With CN(C)CCn1nc(-c2ccccc2)c(C(F)(F)F)c1C(=O)Nc1cnc(-n2nccn2)c(C#N)c1 [Compound I-175] as the compound, how does the IC50 read?
A: 2500 to 10000 nM

Q: O=C(Nc1cnc(-n2nccn2)c(Cl)c1)c1c(C(F)(F)F)c(-c2ccccc2)nn1C1COC1 [Compound I-176] was tested. Which IC50 did it give?
A: 2500 to 10000 nM

Q: With N#Cc1cc(NC(=O)c2c(C(F)(F)F)c(-c3ccccc3)nn2C2COC2)cnc1-n1nccn1 [Compound I-177] as the compound, how does the IC50 read?
A: 2500 to 10000 nM

Q: O=C(Nc1ccnc(C(F)(F)F)c1)c1c(C(F)(F)F)c(-c2ccccc2)nn1C1COC1 [Compound I-178] was tested. Which IC50 did it give?
A: > 10000 nM

Q: With O=C(Nc1cnc(-n2nccn2)c(Cl)c1)c1c(C(F)(F)F)c(-c2ccccc2)nn1C(F)F [Compound I-179, N-(5-chloro-6-(2H-1,2,3-triazol-2-yl)pyridin-3-yl)-1-(difluoromethyl)-3-phenyl-4-(trifluoromethyl)-1H-pyrazole-5-carboxamide] as the compound, how does the IC50 read?
A: < 500 nM

Q: With O=C(Nc1cnc(-n2nccn2)c(Cl)c1)c1nn(C(F)F)c(-c2ccccc2)c1C(F)(F)F [Compound I-180] as the compound, how does the IC50 read?
A: < 500 nM

Q: Which IC50 does the source give for O=C(Nc1cnc(-n2nccn2)c(Cl)c1)c1cc(-c2ccccc2)nn1C(F)F [Compound I-181] here?
A: 2500 to 10000 nM

Q: With O=C(Nc1cnc(-n2nccn2)c(Cl)c1)c1cc(-c2ccccc2)n(C(F)F)n1 [Compound I-182] as the compound, how does the IC50 read?
A: > 10000 nM
